Assay results from patent US10028958B2, “Methods of treating cancer with a combination of selected MEK1/2 and AXL inhibitors” (Massachusetts Institute of Technology, priority 2014, dated 2018).
One block for each compound: values may come before it.

Columns and labels:
mitotic index = experiment: Cell cycle analysis (mitotic index by FACS); assay type: cell-based
Description: Cells were trypsinized, rinsed in 4° C. PBS, fixed in 70% 4° C. ethanol overnight, rinsed, and permeabilized in 0.1% Triton-X-100. Cells were then blocked for 1 h in PBS+3% FBS, incubated with anti-phospho-Histone H3 (pSer^10) for 1 h, rinsed, incubated with Alexa647-conjugated 2° Ab, and again rinsed. Lastly, cells were finally incubated at 37° C. for 1 h with 40 μg/ml propidium iodide and 100 μg/ml RNaseA, and again rinsed. Mitotic index was calculated by interpreting DNA-content histograms as described previously (Watson, J. V., Chambers, S. H. & Smith, P. J. A pragmatic approach to the analysis of DNA histograms with a definable G1 peak. Cytometry 8, 1-8 (1987)) in Matlab (Mathworks, Natick, Mass.) and gating for G2/M phase cells with high p-Histone-H3 staining.

[1] = tested on: AXL association with MET and HER2; experiment: RTK cross-linking and bead-based co-I.P.; assay type: cell-based; settings: 2 h; MDAMB231
Description: MDA-MB231 cells were plated at 90% confluency on three 10-cm plates for each condition, serum starved for 4 h the following day, and treated with inhibitor in serum-free media for 2 h. Cells were then cross-linked with 1 mM EGS for 30 min at 4° C., lysed. Receptor cross-linking was measured using a modified MET and HER2 Luminex Bioplex assay, as previously described (Meyer, A. S., Miller, M. A., Gertler, F. B., and Lauffenburger, D. A. (2013). The receptor AXL diversifies EGFR signaling and limits the response to EGFR-targeted inhibitors in triple-negative breast cancer cells. Sci Signal 6, ra66).

sheddase substrates = experiment: Supernatant accumulation of sheddase substrates (ELISA, bead-based immunoassay); settings: for supernatant RTK accumulation: multiple cancer types
p-JNK = experiment: Short term BB94-elicited downstream phosphosignaling (bead-based immunoassay); assay type: cell-based; settings: 2 h
AXL pY = experiment: Short term p-AXL up-regulation (bead-based immunoassay); assay type: cell-based; settings: 2 h; MDAMB231
Source text: pTyr-RTK measurements used bead-based immunocapture with a pan-pTyr detection antibody (EMD Millipore, Billerica, Mass.). Unless otherwise stated, immunoassays followed manufacturer protocols. Bead-based immunoassays were routinely normalized according to the micro BCA protein assay (Pierce) or cell count (ViCell). ADAM17 (pThr^735) and ADAM10 western blot Abs were from Sigma. Anti-phospho Histone H3 (Ser10) for measuring mitotic index was from EMD Millipore, (Billerica, Mass.). GAPDH (glyceraldehyde-3-phosphate dehydrogenase) and α-actinin were used for Western blotting and purchased from Cell Signaling Technology (Danvers, Mass.). APP Ab was from Abcam (Cambridge, Mass.). Live-cell immunostaining was performed using R&D Systems (Minneapolis, Minn.) Abs. SiRNAs, including non-targeting control siRNA, were packaged as SMARTpool ON-TARGETplus and used with DharmaFECT4 (Thermo Scientific, Tewksbury, Mass.). For ADAM10/17 western blots, lysis was performed with 50 mM tris-HCl (pH 7.5), 10% glycerol, 150 mM NaCl, and 1% NP-40, with complete protease (Roche, Nutley, N.J.) and phosphatase (Boston BioProducts, Ashland, Mass.) inhibitors added immediately before use.

[2] = tested on: OVCA-429 ovarian cancer cells; experiment: Loewe synergy of MEKi/AXLi cell count, with or without BB94; assay type: cell-based; settings: 72 h; addition of 10 uM BB94
Description: (§1) Drugs were purchased from Selleck Chem (Houston, Tex.) and LC Labs (Woburn, Mass.). Cells were grown as described by manufacturers' guidelines. OVCA-429 were grown in RPMI+10% FBS. To calculate Loewe synergy, a computational model was used (Greco, W. R., et al., Pharmacol Rev., 47(2):331-85 (1995)) and the synergy term a was computationally inferred using Matlab (Mathworks; Natick, Mass.). Statistical significance was determined by leave-one-out jackknife error estimation (Efron, B. and Gong, G., Amer Stat.; 37(1):36-48 (1983)). For both MDAMB-231 and OVCA-429 synergy calculations, the modeling was fit to data from treatment at the MEKi concentrations of 7 μM, 2 μM, 0.7 μM, and 0.02 μM and R428 concentrations of 1.5 μM, 0.75 μM, 0.38 μM, and 0.19 μM. For cell growth assays, 5000 cells were plated per well in a 96-well plate, treated with drugs the following day, and counted at 72 h according to either a rezasurin assay (PrestoBlue; Life Technologies, Grand Island, N.Y.) using manufacturer's guidelines, or by flow cytometry following trypsinization and immediate analysis on an LSR-II (BD Biosciences, San Jose, Calif.).

MDAMB-231 = experiment: as above; assay type: cell-based; settings: 72 h; addition of 10 uM BB94
Description: as §1

[3] = tested on: ovarian carcinoma and malignant melanoma; experiment: Combination drug treatment cell growth assay, 72 h; assay type: cell-based
Description: Drugs were purchased from Selleck Chem (Houston, Tex.) and LC Labs (Woburn, Mass.). Cells were grown as described by manufacturers' guidelines. […] For cell growth assays, 5000 cells were plated per well in a 96-well plate, treated with drugs the following day, and counted at 72 h according to either a rezasurin assay (PrestoBlue; Life Technologies, Grand Island, N.Y.) using manufacturer's guidelines, or by flow cytometry following trypsinization and immediate analysis on an LSR-II (BD Biosciences, San Jose, Calif.).

[4] = tested on: supernatant TIMP-1 and -3; experiment: Antibody microarray analysis of MDA-MB231 supernatant; assay type: cell-based; settings: 24 h; MDAMB231; Ab-microarray
Description: MDA-MB231 cells were plated in 10 cm plates at 70% confluency, treated the following day with either DMSO or PD325901, and supernatant was collected 24 hours (h) later. Using L-1000 RayBio (Norcross Ga.) microarrays, supernatant was processed according to manufacturer instructions. Two biological replicate samples were analyzed for the control and MEKi conditions, with one sample undiluted and the other diluted 1:5 in growth media. Each array contains duplicate antibody spots, and so a total of n=4 replicates was used to determine significant changes in supernatant proteins. Only proteins measured more than four standard deviations above background for at least one condition were included in the analysis. Gene set enrichment analysis was performed as previously described using gene ontology (GO) gene sets (Subramanian, A. et al., Gene set enrichment analysis: a knowledge-based approach for interpreting genome-wide expression profiles. Proc Natl Acad Sci USA 102, 15545-15550 (2005)). […] The other top gene-sets were “intrinsic to membrane”, “integral to membrane”, “receptor activity”, and “intrinsic to plasma membrane”. The highest enrichment score in PD325901-treated cells was for “hematopoietin interferon class-D200 domain cytokine receptor binding” comprising 10 non-transmembrane proteins, with a corresponding p-value of 0.003.

MDA-MB231-LM2 cells = experiment: Orthotopic xenograft model of TNBC: tumor growth, metastasis, immunostaining, plasma receptors; assay type: in vivo, mice; settings: primary tumors, 21 days after treatment
Description: For orthotopic mammary transplant assays, 6-week-old female NOD/SCID-gamma mice (JAX) were anesthetized by intraperitoneal (i.p.) injection of 125-250 mg/kg body weight of Avertin (reconstituted in PBS), followed by i.p. injection of 100 μL, of 12 μg/mL buprenorphine for analgesia. A small incision was made on the right flank, and 250,000 MDA-MB231-LM2 cells in 25 μL, of HBSS were injected into the right #4 fat pad using a 25-μL Hamilton syringe. Mice received three additional i.p. injections of 100 μL, of 12 μg/mL buprenorphine at 12 h intervals following the surgery. […] Twenty (20) days post-surgery, when tumor size was palpable, mice were ranked by tumor size and semi-randomly divided into four groups of equal distribution in tumor size. […]
MET and AXL levels were quantified by measuring fluorescent staining intensity over a line drawn radially from the tumor edge towards the tumor core. […] Regions with morphology characteristic of stroma or necrosis were generally avoided during quantification. Peak intensities along the line were confirmed by visual inspection as corresponding to cell membranes, and were quantified and indexed according to the distance from the tumor edge.

surface AXL = settings: 24 hours; 10 cell lines; more in lines with AXLi/MEKi synergy
Description: Cells were trypsinized, rinsed in 4° C. phospho-buffered saline (PBS)+3% FBS, incubated with 1° Ab (i.e., primary antibody) in PBS+3% FBS for 1 h, rinsed, and fixed overnight in PBS+1% formaldehyde at 4° C. The following day, cells were rinsed, incubated with 2° Ab (i.e., secondary antibody) conjugated to either Alexa647 or Alexa546, rinsed, and analyzed by flow cytometry. Fold-change was determined after subtracting the median fluorescence from control cells stained with the IgG control antibody.

panel of cell lines = experiment: Proliferation/cytotoxicity cell count by flow cytometry; assay type: cell-based; settings: individual drug treatment; rough approximation
Description: Proliferation and cytotoxicity were assessed by gently rinsing cells, trypsinizing for 15 min, and immediately counting cells by flow-cytometry. Live/dead staining routinely confirmed the majority (>98%) of counted cells to be alive using this procedure. Synergy was calculated using the model of Bliss independence (Bliss, C. I. The toxicity of poisons applied jointly Annals of applied biology 26, 585-615 (1939)), reported herein as the ratio of [observed combination effect size]/[predicted combination effect size], such that values >1 indicate super-additive drug effect, or synergy, and values <1 indicate antagonism. Drug concentrations for synergy measurements were chosen to roughly approximate the IC30 value averaged across the panel of cell lines for the individual drug treatments, and were 20 μM U0126, 7 μM PD325901, and 200 nM R428.

ADAM17 = ADAM17 dimerization (s-EGS cross-linking, western blot); assay type: cell-based; settings: 3 h; MDA-MB231, MDA-MB157, BT549
Description: For each condition, two confluent 15 cm plates of cells were serum-starved for 4 h, treated with inhibitor for 3 h, rinsed with 4° C. PBS, incubated with 0.5 mg/ml sulfo-EGS (Pierce) for 30 min., and lysed in 1% NP40 buffer. Lysates were clarified, precleared with agarose resin, incubated with protein A/G resin (Pierce) and anti-ADAM17 antibody (R&D Systems Duo-set) overnight, washed, and then boiled in denaturing lysis buffer. Methods roughly follow previously described protocols (Miller, M. A., Meyer, A. S., Beste, M. T., Lasisi, Z., Reddy, S., Jeng, K. W., Chen, C. H., Han, J., Isaacson, K., Griffith, L. G. et al. (2013). ADAM-10 and -17 regulate endometriotic cell migration via concerted ligand and receptor shedding feedback on kinase signaling, Proc Natl Acad Sci USA 110, E2074-E2083; Xu, P., Liu, J., Sakaki-Yumoto, M., and Derynck, R. (2012). TACE activation by MAPK-mediated regulation of cell surface dimerization and TIMP3 association, Sci Signal 5, ra34).

LOX-IMVI cells = experiment: Xenograft mouse model of melanoma; design: species or system mice; settings: in vivo
Description: For the xenograft melanoma experiment, 7 week old female athymic nude mice (Taconic) were injected with 1×10^6 LOX-IMVI cells in 1:1 Matrigel:HBSS subcutaneously in each flank (Yang, D., et al. “RasGRP3, a Ras activator, contributes to signaling and the tumorigenic phenotype in human melanoma.” Oncogene 30, no. 45: 4590-4600 (2011)). 7 days post-cell injection, tumors were measured by calipers and mice were ranked by tumor size and semi-randomly divided into 6 groups of equal distribution in tumor size, with 10 mice per group. […]
Tumor volumes was measured two to three times a week, estimated using the spherical tumor volume formula V=4/3πr^3, where r is averaged from 4 caliper measurements performed by two blinded researchers. […] For metastasis quantification, the numbers of metastases were counted in paraffin-embedded, H&E-stained sections, by a blinded researcher. Upon sacrifice, blood was collected via cardiac puncture into a heparinized syringe, immediately centrifuged at 2000×g for 20 min, and plasma fraction was stored at −80° C. for later quantification of receptor levels by ELISA and bead-based immunoassay.

supernatant RTK accumulation (sheddase substrates; 24 h): reduced supernatant RTK accumulation
Compound: CNC(=O)[C@H](Cc1ccccc1)NC(=O)[C@H](CC(C)C)[C@H](CSc1cccs1)C(=O)NO [BB94]
mitotic index (mitotic index): increases mitotic index
AXL association with MET and HER2 [1]: increases
phosphosignaling (p-JNK; MDAMB231): increases phosphosignaling in an AXL-dependent manner
total AXL pY (AXL pY): increases
Loewe synergy (interaction term α) of trametinib and R428 [2]: reduced synergy
Loewe synergy (interaction term α) of PD325901 and R428 (MDAMB-231): reduced synergy

Compound: S=C(NCc1ccc2c(c1)OCO2)N1CCN(c2ncnc3c2oc2ccccc23)CC1 [MP470, amuvatinib]
efficacy of combination treatment with MAPK and RTK inhibitors (cell count) [3]: efficacious

Compound: O=C(NOC[C@H](O)CO)c1ccc(F)c(F)c1Nc1ccc(I)cc1F [PD325901]
supernatant TIMP-1 and -3 [4]: decreases supernatant TIMP-1 and -3
AXL and MET ectodomain immunostaining near the tumor edge (MDA-MB231-LM2 cells): up-regulation of AXL, and MET to a lesser degree
surface AXL (surface AXL): increase surface AXL
supernatant RTK accumulation (sheddase substrates; 24 h): reduced supernatant RTK accumulation
IC30 value averaged across the panel of cell lines (panel of cell lines): ~7 µM
ADAM17 homodimerization (ADAM17): increased ADAM17 dimerization

Compound: Nc1nc(Nc2ccc3c(c2)CC[C@@H](N2CCCC2)CC3)nn1-c1cc2c(nn1)-c1ccccc1CCC2 [R428]
overall survival (LOX-IMVI cells): no significant effect on overall survival
MPi-evoked p-JNK increase on co-treatment (p-JNK; MDA-MB231, co-treatment with BB94): eliminated
IC30 value averaged across the panel of cell lines (panel of cell lines): ~0.2 µM

Compound: N#CC(=C(/N)Sc1ccccc1N)/C(C#N)=C(\N)Sc1ccccc1N [U0126]
surface AXL (surface AXL): increase surface AXL
supernatant accumulation of sheddase substrates (sheddase substrates; 24 h, each dot a different cell line, ELISA): reduces supernatant accumulation of sheddase substrates
supernatant levels of multiple sheddase substrates (AREG, HBEGF, TGFα, TNFR1, AXL, MET, HER2, HER4) (sheddase substrates; MDA-MB231 cells): consistently reduce supernatant levels of multiple sheddase substrates
IC30 value averaged across the panel of cell lines (panel of cell lines): ~20 µM
total AXL pY (AXL pY): increases

Compound: COc1cc2c(Oc3ccc(NC(=O)C4(C(=O)Nc5ccc(F)cc5)CC4)cc3F)ccnc2cc1OCCCN1CCOCC1 [foretinib]
efficacy of combination treatment with MAPK and RTK inhibitors (cell count) [3]: efficacious

Compound: CNC(=O)c1cc(Oc2ccc(NC(=O)Nc3ccc(Cl)c(C(F)(F)F)c3)cc2)ccn1 [sorafenib]
efficacy of combination treatment with MAPK and RTK inhibitors (cell count) [3]: effective
